Ends that are not written are not given here. Peptide text beside a SMILES is read from it.
Target: T1, ACE from rabbit lung (Oryctolagus cuniculus, UniProt P12822)
T1 construct: ACE from rabbit lung was purchased from Sigma Chemical Co; purchased Sigma Chemical Co. (St. Louis, MO, USA); host or cells: rabbit lung (tissue-derived)
T1 sequence (P12822 34-1310): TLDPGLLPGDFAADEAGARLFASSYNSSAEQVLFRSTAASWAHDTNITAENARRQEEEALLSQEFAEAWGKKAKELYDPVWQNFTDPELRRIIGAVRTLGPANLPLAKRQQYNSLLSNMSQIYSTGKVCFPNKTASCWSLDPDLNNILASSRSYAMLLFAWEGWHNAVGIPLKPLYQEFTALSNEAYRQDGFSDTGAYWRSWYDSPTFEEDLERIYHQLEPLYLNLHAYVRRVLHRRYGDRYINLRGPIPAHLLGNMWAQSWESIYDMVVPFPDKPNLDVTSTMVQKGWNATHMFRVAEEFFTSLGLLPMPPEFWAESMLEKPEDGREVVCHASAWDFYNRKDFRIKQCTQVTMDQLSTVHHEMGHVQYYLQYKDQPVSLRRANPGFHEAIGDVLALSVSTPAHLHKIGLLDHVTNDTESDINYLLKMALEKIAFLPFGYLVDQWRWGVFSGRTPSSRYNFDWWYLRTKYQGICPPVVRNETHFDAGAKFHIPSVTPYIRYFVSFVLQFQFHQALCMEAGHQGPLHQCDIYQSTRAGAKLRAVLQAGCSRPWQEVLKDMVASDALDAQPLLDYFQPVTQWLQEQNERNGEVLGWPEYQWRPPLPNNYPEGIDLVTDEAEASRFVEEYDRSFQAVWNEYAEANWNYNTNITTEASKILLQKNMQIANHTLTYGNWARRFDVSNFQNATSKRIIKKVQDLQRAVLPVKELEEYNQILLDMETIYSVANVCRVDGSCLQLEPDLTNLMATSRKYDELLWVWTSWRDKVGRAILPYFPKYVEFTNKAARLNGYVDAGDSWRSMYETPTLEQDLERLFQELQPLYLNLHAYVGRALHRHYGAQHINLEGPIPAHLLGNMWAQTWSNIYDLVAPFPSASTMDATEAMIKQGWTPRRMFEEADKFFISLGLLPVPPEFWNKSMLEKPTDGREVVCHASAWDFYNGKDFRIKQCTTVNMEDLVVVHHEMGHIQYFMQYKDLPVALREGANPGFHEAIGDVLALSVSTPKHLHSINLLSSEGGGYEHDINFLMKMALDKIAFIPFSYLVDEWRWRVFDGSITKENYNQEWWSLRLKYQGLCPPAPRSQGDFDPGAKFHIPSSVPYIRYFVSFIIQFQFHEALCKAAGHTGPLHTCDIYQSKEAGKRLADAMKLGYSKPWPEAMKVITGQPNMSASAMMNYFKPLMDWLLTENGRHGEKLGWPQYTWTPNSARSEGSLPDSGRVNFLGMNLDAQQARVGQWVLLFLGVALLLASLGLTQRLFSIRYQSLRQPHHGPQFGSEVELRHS
Assay: ACE inhibitory assay (Hip-His-Leu)
Type: biochemical
Conditions: IC50 defined as absolute quantity of peptide to inhibit 50% of 1.0 U ACE; pre-incubated 37 °C 5 min; Hip-His-Leu 12.5 mM, 0.1 M sodium borate, 400 mM NaCl, pH 8.3, 37 °C, 1 h; hippuric acid absorbance at 228 nm; read-out: IC50 Value, ACE inhibitory activity of synthetic peptides
Description: ACE from rabbit lung was purchased from Sigma Chemical Co. (St. Louis, MO, USA). Hyppuryl-L-histidyl-L-leucine (Hip-His-Leu), thermolysin (EC 3.4.24.27) from Bacillus thermoproteolyticus, pepsin (EC 3.4.23.1) from porcine stomach, trypsin (EC 3.4.21.4) from bovine pancreas and chymotrypsin (EC 3.4.21.1) from bovine pancreas were purchased from Wako Pure Chemical (Osaka, Japan). Synthetic peptides (purity: 99.4%–99.8%) were purchased from Medical Biological Laboratories Co. (Nagoya, Japan). All other reagents were purchased from Wako Pure Chemical Industries (Osaka, Japan).
ACE inhibitory assay was carried out according to the method of Cheng and Cushman with some modifications. Fifteen microliters of sample solution (5.0 mg/mL) were added to 30 μL of ACE (0.2 units/mL), and the mixture was pre-incubated at 37 °C for 5 min. Thirty microliters of Hip-His-Leu solution (12.5 mM in 0.1 M sodium borate buffer containing 400 mM NaCl at pH 8.3) were added to the mixture. After incubation at 37 °C for 1 h, the reaction was stopped by adding 75 μL of 1.0 M HCl. The released hippuric acid was extracted with 450 μL of ethyl acetate. Four hundred microliters of the upper layer were evaporated, and then the hippuric acid was dissolved in 1.5 mL of distilled water. The absorbance at 228 nm of the solution was measured by a spectrophotometer. The inhibition was calculated from the equation [1 − (As − Asb)/(Ac − Acb)] × 100, where Ac is the absorbance of the buffer, Acb is the absorbance when the stop solution was added to the buffer before the reaction, As is the absorbance of the sample, and Asb is the absorbance when the stop solution was added to the sample before the reaction. In this study, we defined the IC50 as an absolute quantity of peptide to inhibit 50% of 1.0 U ACE.

IC50 [µM]	Compound
6.1	CC(C)C[C@H](N)C(=O)N[C@@H](CC(=O)O)C(=O)N[C@@H](Cc1ccc(O)cc1)C(=O)O [LDY] (H-Leu-Asp-Tyr-OH)
0.044	CC(C)C[C@H](N)C(=O)N[C@@H](CCCNC(=N)N)C(=O)N[C@@H](Cc1ccc(O)cc1)C(=O)O [LRY] (H-Leu-Arg-Tyr-OH)
0.14	CC(C)[C@H](N)C(=O)N[C@@H](Cc1ccc(O)cc1)C(=O)N[C@@H](CCCNC(=N)N)C(=O)N[C@H](C(=O)O)[C@@H](C)O [VYRT] (H-VYRT-OH)
> 2.8	FEQDWAS [FEQDWAS]

From PMC4771985, “Angiotensin I Converting Enzyme Inhibitory Peptides Derived from Phycobiliproteins of Dulse Palmaria palmata” (Marine Drugs, 2016)
